Data from patent publication US20240196897A1, “METHOD FOR CONTROLLING DISEASE-TRANSMITTING INSECTS USING CONDENSED HETEROCYCLIC COMPOUND” (SUMITOMO CHEMICAL COMPANY, LIMITED, priority 2021, published 2024).

Columns and labels:
[1] = system: German cockroaches (Blattella germanica); assay: Aerosol spray test on adult German cockroaches, moribund and mortal rates; type: in vivo; conditions: aerosol per Formulation Example 2 (0.1 part compound); spray time 1.35 seconds, spray amount about 800 mg, from height 50 cm; ten adults; one day after spraying
Protocol: (§1) The internal pressure of the container at 20° C. of the aerosols thus fabricated was 0.5 MPa, the spray amount was 3 g/5 seconds, and the representative particle size (XR value) was 14 to 15 μm.
In a plastic container (diameter: 12.4 cm, height: 10.2 cm), ten adult German cockroaches (Blattella germanica) (five males and five females each) were released, and the plastic container was placed in the center of the bottom of a cylindrical chamber of 17.2 cm in diameter. From the height of 50 cm, the aerosol containing each compound listed in Table 2 which was fabricated according to the method mentioned in Formulation Example 2 was sprayed with a spray time of 1.35 seconds and a spray amount of about 800 mg. After a lapse of one day from spraying, the number of dead and moribund individuals was examined, and moribund and mortal rates (%) were determined by the equation 1 below. Dead individuals are completely immobile individuals, and moribund individuals are individuals who cannot get up when turned on their backs.
Moribund and mortal rates (%)={(number of dead individuals+number of moribund individuals)/number of tested individuals}×100 (Equation 1)

[2] = system: Argentine worker ants (Linepithema humile); assay: Aerosol spray test on adult Argentine worker ants, moribund and mortal rates; type: in vivo; conditions: aerosol per Formulation Example 2 (0.1 part compound), from height 60 cm, ten adult workers, seven days after spraying
Protocol: as §1
In a plastic container (diameter: 10 cm, height: 4.5 cm) lined with a filter paper (diameter: 8.2 cm), ten adult Argentine worker ants (Linepithema humile) were released, and the plastic container was placed in the center of the bottom of a cylindrical chamber of 17.2 cm in diameter. From the height of 60 cm, the aerosol containing each compound listed in Table 2 which was fabricated according to the method mentioned in Formulation Example 2 was sprayed with a spray time of 0.34 second or 0.68 second and a spray amount of about 400 mg or 200 mg. After a lapse of seven days from spraying, the number of dead and moribund individuals was examined, and moribund and mortal rates (%) were determined by the equation 2 below. Dead individuals are completely immobile individuals, and moribund individuals are individuals who cannot get up when turned on their backs.
Moribund and mortal rates (%)={(number of dead individuals+number of moribund individuals)/number of tested individuals}×100 (Equation 2)

CCS(=O)(=O)c1cc(C(F)(F)F)cnc1-c1nc2cc([S+]([O-])C(F)(F)F)ccc2o1 (stereo not drawn) [Comparative compound 1]
Moribund and mortal rates (%) after one day [1]: 30%
Moribund and mortal rates (%) after seven days ([2]; spray amount 200 mg): 10%
Moribund and mortal rates (%) after seven days ([2]; spray amount 400 mg): 100%

CCS(=O)(=O)c1cc(C(F)(F)F)cnc1-c1nc2cc(S(=O)(=O)C(F)(F)F)ccc2o1 [Comparative compound 2]
Moribund and mortal rates (%) after one day [1]: 30%
Moribund and mortal rates (%) after seven days ([2]; spray amount 200 mg): 13%
Moribund and mortal rates (%) after seven days ([2]; spray amount 400 mg): 100%

CCS(=O)(=O)c1cc(C)cnc1-c1nc2cc([S+]([O-])C(F)(F)F)ccc2o1 (stereo not drawn) [Comparative compound 3]
Moribund and mortal rates (%) after one day [1]: 30%
Moribund and mortal rates (%) after seven days ([2]; spray amount 200 mg): 3%
Moribund and mortal rates (%) after seven days ([2]; spray amount 400 mg): 100%

CCS(=O)(=O)c1cc(C)cnc1-c1nc2cc(S(=O)(=O)C(F)(F)F)ccc2o1 [Comparative compound 4]
Moribund and mortal rates (%) after one day [1]: 15%
Moribund and mortal rates (%) after seven days ([2]; spray amount 200 mg): 10%
Moribund and mortal rates (%) after seven days ([2]; spray amount 400 mg): 100%

CCS(=O)(=O)c1cc(C2CC2)cnc1-c1nc2cc([S+]([O-])C(F)(F)F)ccc2o1 (stereo not drawn) [Present compound A]
Moribund and mortal rates (%) after one day [1]: 100%
Moribund and mortal rates (%) after seven days ([2]; spray amount 200 mg): 100%
Moribund and mortal rates (%) after seven days ([2]; spray amount 400 mg): 100%

CCS(=O)(=O)c1cc(C2CC2)cnc1-c1nc2cc(S(=O)(=O)C(F)(F)F)ccc2o1 [Present compound B]
Moribund and mortal rates (%) after one day [1]: 100%
Moribund and mortal rates (%) after seven days ([2]; spray amount 200 mg): 100%
Moribund and mortal rates (%) after seven days ([2]; spray amount 400 mg): 100%
